Values of other authors, collected in patent US10588912B2, “Methods of reducing mammographic breast density and/or breast cancer risk” (Havah Therapeutics Pty Ltd., priority 2014, dated 2020).

Details: oral absorption

In the case of C[C@]12CC[C@H]3[C@@H](CCC4=CC(=O)CC[C@@]43C)[C@@H]1CC[C@@H]2O [testosterone], the “fraction broken down in the intestines by aromatase and other metabolic pathways” value is listed as “approximately 85%”.
